From patent US7880007B2, “Bicyclic substituted phenyl piperidine modulators of muscarinic receptors” (Vertex Pharmaceuticals Incorporated, priority 2004, dated 2011)

Experiments:
Assay type in all cases: cell-based
[1] = biological target: T1, M1 muscarinic receptor (Homo sapiens, UniProt P11229); assay: Functional mobilization of intracellular calcium (FLIPR), M1-CHO cells; details: for M1 Efficacy / Emax: 100% efficacy = maximum response obtained with the Carbachol control; for M1 Activity: M1-CHO cells, calcium mobilization (FLIPR)
T1 construct: expressed in transfected cells; host or cells: CHO (M1-CHO)
T1 sequence (P11229 1-460): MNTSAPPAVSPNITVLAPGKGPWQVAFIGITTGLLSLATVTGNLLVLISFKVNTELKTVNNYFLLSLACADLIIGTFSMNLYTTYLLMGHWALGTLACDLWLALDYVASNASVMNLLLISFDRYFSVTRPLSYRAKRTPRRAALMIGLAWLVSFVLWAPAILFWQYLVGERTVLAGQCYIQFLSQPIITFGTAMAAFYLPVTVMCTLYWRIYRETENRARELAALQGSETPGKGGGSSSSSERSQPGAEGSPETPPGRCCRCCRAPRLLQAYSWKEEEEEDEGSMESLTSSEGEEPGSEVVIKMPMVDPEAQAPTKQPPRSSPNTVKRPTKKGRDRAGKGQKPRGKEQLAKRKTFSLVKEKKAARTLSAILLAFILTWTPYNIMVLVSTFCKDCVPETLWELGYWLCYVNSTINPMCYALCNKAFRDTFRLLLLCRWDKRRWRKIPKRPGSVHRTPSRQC
Summary of the method: (§1)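 FLIPR fluorescence (ex 488, em 540 nm) recorded 60 sec after compound addition to dye-loaded CHO cells. Agonist mode: compound alone. Antagonist mode: 15 min compound pre-incubation, then carbachol at EC80, or co-application. Efficacy expressed as % of maximal carbachol response.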

[2] = biological target: T2, M4 muscarinic receptor (Homo sapiens, UniProt P08173); assay: Functional mobilization of intracellular calcium (FLIPR), M4-CHO cells; details: for M4 Efficacy / Emax: 100% efficacy = maximum response obtained with the Carbachol control; for M4 Activity: M4-CHO cells, calcium mobilization (FLIPR)
T2 construct: expressed in transfected cells; host or cells: CHO (M4-CHO)
T2 sequence (P08173 1-479): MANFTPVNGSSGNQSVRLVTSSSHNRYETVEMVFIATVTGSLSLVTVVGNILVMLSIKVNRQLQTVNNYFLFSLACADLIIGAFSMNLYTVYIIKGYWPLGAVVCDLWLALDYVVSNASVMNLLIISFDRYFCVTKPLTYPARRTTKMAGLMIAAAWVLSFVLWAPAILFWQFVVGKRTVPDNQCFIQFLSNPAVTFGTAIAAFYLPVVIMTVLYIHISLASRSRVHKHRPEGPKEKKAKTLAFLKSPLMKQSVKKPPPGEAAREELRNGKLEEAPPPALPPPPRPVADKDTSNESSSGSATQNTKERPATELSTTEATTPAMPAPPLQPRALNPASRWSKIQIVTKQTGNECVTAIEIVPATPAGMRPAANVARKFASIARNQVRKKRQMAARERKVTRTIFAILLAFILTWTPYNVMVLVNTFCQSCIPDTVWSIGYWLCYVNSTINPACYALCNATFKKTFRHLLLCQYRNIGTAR
Summary of the method: as §1

[3] = biological target: T3, M3 muscarinic receptor (Homo sapiens, UniProt P20309); assay: Functional mobilization of intracellular calcium (FLIPR), M3-CHO cells; details: for M3 Efficacy / Emax: 100% efficacy = maximum response obtained with the Carbachol control; for M3 Activity: M3-CHO cells, calcium mobilization (FLIPR)
T3 construct: expressed in transfected cells; host or cells: CHO (M3-CHO)
T3 sequence (P20309 whole entry): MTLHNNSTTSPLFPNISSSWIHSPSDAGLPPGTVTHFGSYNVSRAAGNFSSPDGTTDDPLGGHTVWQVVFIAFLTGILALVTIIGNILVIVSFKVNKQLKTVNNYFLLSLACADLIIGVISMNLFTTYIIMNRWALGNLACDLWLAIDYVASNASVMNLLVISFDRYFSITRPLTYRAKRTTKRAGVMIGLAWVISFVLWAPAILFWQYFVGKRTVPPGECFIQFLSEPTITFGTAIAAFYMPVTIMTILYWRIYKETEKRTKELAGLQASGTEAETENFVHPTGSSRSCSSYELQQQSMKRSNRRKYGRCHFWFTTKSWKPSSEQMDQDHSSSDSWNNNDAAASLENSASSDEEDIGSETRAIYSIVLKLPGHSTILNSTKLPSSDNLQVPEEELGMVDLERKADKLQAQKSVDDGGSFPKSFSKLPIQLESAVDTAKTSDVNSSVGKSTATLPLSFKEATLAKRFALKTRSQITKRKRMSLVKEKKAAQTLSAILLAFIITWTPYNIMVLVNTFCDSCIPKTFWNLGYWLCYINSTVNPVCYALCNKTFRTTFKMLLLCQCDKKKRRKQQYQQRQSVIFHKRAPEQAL
Summary of the method: as §1

[4] = biological target: T4, M2 muscarinic receptor (Homo sapiens, UniProt P08172); assay: Functional mobilization of intracellular calcium (FLIPR), M2-CHO cells; details: for M2 Efficacy / Emax: 100% efficacy = maximum response obtained with the Carbachol control; for M2 Activity: M2-CHO cells, calcium mobilization (FLIPR)
T4 construct: expressed in transfected cells; host or cells: CHO (M2-CHO)
T4 sequence (P08172 1-466): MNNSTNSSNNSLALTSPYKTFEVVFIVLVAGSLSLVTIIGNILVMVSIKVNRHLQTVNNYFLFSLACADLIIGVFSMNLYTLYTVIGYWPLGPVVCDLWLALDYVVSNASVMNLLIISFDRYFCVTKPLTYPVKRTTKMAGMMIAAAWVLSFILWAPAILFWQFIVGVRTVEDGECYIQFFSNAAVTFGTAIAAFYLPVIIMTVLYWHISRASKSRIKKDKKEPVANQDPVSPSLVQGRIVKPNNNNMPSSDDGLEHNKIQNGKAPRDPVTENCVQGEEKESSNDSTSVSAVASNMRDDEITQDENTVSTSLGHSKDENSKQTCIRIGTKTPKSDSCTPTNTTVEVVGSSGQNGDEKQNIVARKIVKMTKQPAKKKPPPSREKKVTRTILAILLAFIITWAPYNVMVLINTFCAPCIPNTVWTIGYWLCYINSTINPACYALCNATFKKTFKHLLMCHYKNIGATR
Summary of the method: as §1

| Emax [1] [%] | Emax [2] [%] | Emax [3] [%] | Emax [4] [%] | Structure (SMILES) | M1 Efficacy [1] | M1 Activity [1] | M4 Efficacy [2] | M4 Activity [2] | M3 Efficacy [3] | M3 Activity [3] | M2 Efficacy [4] | M2 Activity [4] |
| --- | --- | --- | --- | --- | --- | --- | --- | --- | --- | --- | --- | --- |
| – | – | – | – | COc1ccc(Cl)cc1C1CCN(C2CCC(=NOc3ccccc3)CC2)CC1 (stereo not drawn) [Compound 336] | ++ (efficacy was calculated to be from 100% to 25%) | ++ (activity was measured to be from 1.0 μM to 5.0 μM) | ++ (efficacy was calculated to be from 100% to 25%) | +++ (activity was measured to be less than 1.0 μM) | + (efficacy was calculated to be less than 25%) | + (activity was measured to be greater than 5.0 μM) | + (efficacy was calculated to be less than 25%) | + (activity was measured to be greater than 5.0 μM) |
| 25 to 100 | 25 to 100 | < 25 | < 25 | CCOC(=O)N1CCC(CN2CCC(c3cccc(C(F)(F)F)c3C)CC2)CC1 [Compound 337] | – | ++ (activity was measured to be from 1.0 μM to 5.0 μM) | – | +++ (activity was measured to be less than 1.0 μM) | – | + (activity was measured to be greater than 5.0 μM) | – | + (activity was measured to be greater than 5.0 μM) |
| 25 to 100 | 25 to 100 | < 25 | < 25 | COc1ccccc1C1CCN(C2CC(c3ccccc3)C(c3ccccc3)C2)CC1 (stereo not drawn) [Compound 339] | – | + (activity was measured to be greater than 5.0 μM) | – | + (activity was measured to be greater than 5.0 μM) | – | + (activity was measured to be greater than 5.0 μM) | – | + (activity was measured to be greater than 5.0 μM) |
| < 25 | 25 to 100 | – | < 25 | Cc1ccc(C)c(C2CCN(C3CC4CCC3C4)CC2)c1 (stereo not drawn) [Compound 341] | – | + (activity was measured to be greater than 5.0 μM) | – | ++ (activity was measured to be from 1.0 μM to 5.0 μM) | – | + (activity was measured to be greater than 5.0 μM) | – | + (activity was measured to be greater than 5.0 μM) |
| 25 to 100 | 25 to 100 | < 25 | < 25 | COc1ccc(-c2ccc(C#N)cc2)cc1C1CCN(C2CCCCC2)CC1 [Compound 342] | – | + (activity was measured to be greater than 5.0 μM) | – | ++ (activity was measured to be from 1.0 μM to 5.0 μM) | – | + (activity was measured to be greater than 5.0 μM) | – | + (activity was measured to be greater than 5.0 μM) |
| 25 to 100 | 25 to 100 | < 25 | < 25 | FC(F)(F)c1ccccc1C1CCN(C2CC3CCC(C3)C2)CC1 (stereo not drawn) [Compound 343] | – | + (activity was measured to be greater than 5.0 μM) | – | +++ (activity was measured to be less than 1.0 μM) | – | + (activity was measured to be greater than 5.0 μM) | – | + (activity was measured to be greater than 5.0 μM) |
| 25 to 100 | 25 to 100 | < 25 | < 25 | CCOC(=O)N1CCC(CN2CCC(c3cc(-c4ccc(C#N)cc4)ccc3OC)CC2)CC1 [Compound 345] | – | ++ (activity was measured to be from 1.0 μM to 5.0 μM) | – | +++ (activity was measured to be less than 1.0 μM) | – | + (activity was measured to be greater than 5.0 μM) | – | + (activity was measured to be greater than 5.0 μM) |
| < 25 | < 25 | < 25 | < 25 | COc1ccccc1C1CCN(CC2CC2)CC1 [Compound 346] | – | + (activity was measured to be greater than 5.0 μM) | – | + (activity was measured to be greater than 5.0 μM) | – | + (activity was measured to be greater than 5.0 μM) | – | + (activity was measured to be greater than 5.0 μM) |
| < 25 | 25 to 100 | < 25 | < 25 | COc1ccc(-c2ccccc2C(N)=O)cc1C1CCN([C@H]2C[C@H]3CC[C@H]2C3)CC1 [Compound 347] | – | + (activity was measured to be greater than 5.0 μM) | – | ++ (activity was measured to be from 1.0 μM to 5.0 μM) | – | + (activity was measured to be greater than 5.0 μM) | – | + (activity was measured to be greater than 5.0 μM) |
| 25 to 100 | 25 to 100 | < 25 | < 25 | COc1cc(F)ccc1C1CCN(C2CCOCC2)CC1 [Compound 349] | – | + (activity was measured to be greater than 5.0 μM) | – | +++ (activity was measured to be less than 1.0 μM) | – | + (activity was measured to be greater than 5.0 μM) | – | + (activity was measured to be greater than 5.0 μM) |
| – | – | – | – | C=CCON=C1CCC(N2CCC(c3cc(Cl)ccc3OC)CC2)CC1 (stereo not drawn) [Compound 350] | ++ (efficacy was calculated to be from 100% to 25%) | +++ (activity was measured to be less than 1.0 μM) | ++ (efficacy was calculated to be from 100% to 25%) | +++ (activity was measured to be less than 1.0 μM) | + (efficacy was calculated to be less than 25%) | + (activity was measured to be greater than 5.0 μM) | + (efficacy was calculated to be less than 25%) | ++ (activity was measured to be from 1.0 μM to 5.0 μM) |
| 25 to 100 | 25 to 100 | < 25 | < 25 | COc1ccc(-c2ccc(C#N)cc2)cc1C1CCN(C2CCOCC2)CC1 [Compound 352] | – | + (activity was measured to be greater than 5.0 μM) | – | + (activity was measured to be greater than 5.0 μM) | – | + (activity was measured to be greater than 5.0 μM) | – | + (activity was measured to be greater than 5.0 μM) |
| < 25 | 25 to 100 | < 25 | < 25 | CNC(=O)c1ccc(-c2ccc(OC)c(C3CCN(C4CCCCC4)CC3)c2)cc1Cl [Compound 353] | – | + (activity was measured to be greater than 5.0 μM) | – | ++ (activity was measured to be from 1.0 μM to 5.0 μM) | – | + (activity was measured to be greater than 5.0 μM) | – | + (activity was measured to be greater than 5.0 μM) |

| Structure (SMILES) | Emax [1] [%] | Emax [2] [%] | Emax [3] [%] | Emax [4] [%] | M1 Efficacy [1] | M1 Activity [1] | M4 Efficacy [2] | M4 Activity [2] | M3 Efficacy [3] | M3 Activity [3] | M2 Efficacy [4] | M2 Activity [4] |
| --- | --- | --- | --- | --- | --- | --- | --- | --- | --- | --- | --- | --- |
| COc1ccc(F)cc1C1(O)CCN(C[C@H]2C[C@H]3C=C[C@H]2C3)CC1 [Compound 340] | 25 to 100 | 25 to 100 | < 25 | 25 to 100 | – | + (activity was measured to be greater than 5.0 μM) | – | +++ (activity was measured to be less than 1.0 μM) | – | + (activity was measured to be greater than 5.0 μM) | – | + (activity was measured to be greater than 5.0 μM) |
